Legend:
[1] = tested on: S. aureus; assay: Photodynamic inactivation (PDI), CFU survival, 405-nm light (Example 8); type: cell-based, Staphylococcus aureus
Text: (§1) Four microbial species were used in this study. Briefly, Escherichia coli was purchased from ATCC (ATCC #25922), Pseudomonas aeruginosa, two clinical isolates, were obtained; UCBP PA 14 from L. Rahme (Massachusetts General Hospital) and PA 767K from Kim Lewis (Tufts University), slime deficient mutant of Staphylococcus aureus was obtained from Gerald B Pier (Channing Laboratories). Yeast strain Candida albicans was purchased from ATCC (ATCC #18804). Exponential cultures obtained by reculturing stationary overnight cultures were used for all experiments. Bacteria were grown at 37° C. in BHI broth to a cell density of 10^8 cells per mL. C. albicans was grown 37° C. in YM medium to 10^7 cells/mL.
(§2) Six fullerene derivatives (NI1-3 and CI1-3) were evaluated. […] Concentration of fullerene derivatives used in the experiments varied between 1 and 100 μM.
Fullerene derivatives were mixed with microbial suspensions and incubated in the dark at room temperature for 10 minutes. Excess fullerenes were either washed out of, or left in, the suspensions before illumination. Aliquots of 100 μL were placed on three well hanging drop slides and illuminated with either a 405-nm laser (Nichia Chemical Industries) at an irradiance of 100 mW/cm^2, or with white light at room temperature. White light was 400-700 nm Gaussian distribution from LumaCare™ lamp with filtered liquid light guide, as described above.
During illumination, aliquots of 20 μL were taken to determine the colony-forming units. The contents of the wells were mixed before sampling. The aliquots were serially diluted 10-fold in PBS without Ca^++/Mg^++ to give dilutions of 10^−1−10^−6 times the original concentrations, and were streaked horizontally on square BHI agar plates. Plates were incubated at 37° C. overnight. Colonies were counted and survival fraction was determined as percent of survival compared to control. Microbial suspensions incubated with fullerene derivatives in DMSO in the absence of light and bacteria illuminated in the absence of fullerene derivatives were used as controls. […]

[2] = tested on: E. coli; assay: as above; type: cell-based, Escherichia coli; conditions: 10-20 μM, 16 J/cm^2 of 405-nm light
Text: as §1, §2
(§3) Fullerene derivatives were mixed with microbial suspensions and incubated in the dark at room temperature for 10 minutes. Excess fullerenes were either washed out of, or left in, the suspensions before illumination. […]
(§4) During illumination, aliquots of 20 μL were taken to determine the colony-forming units. […] Colonies were counted and survival fraction was determined as percent of survival compared to control. […]

[3] = tested on: P. aeruginosa; assay: as above; type: cell-based, Pseudomonas aeruginosa
Text: as §1, §2, §3, §4

[4] = tested on: C. albicans; assay: as above; type: cell-based, Candida albicans; conditions: 10-20 μM, 16 J/cm^2 of 405-nm light
Text: as §1, §2, §3, §4

[5] = tested on: E. coli; assay: Photodynamic inactivation (PDI), CFU survival, white light (red light for TBO); type: cell-based, Escherichia coli; conditions: 10 μM
Experimental: (§5) Staphylococcus aureus (ATCC #35556), Escherichia coli (ATCC #25922), and Pseudomonas aeruginosa (ATCC #BAA-47; PAO1) were cultured in brain-heart infusion (BHI) broth (Difco, BD Diagnosttic Systems, Sparks, Md.) at 37° C. in aerobic conditions in a shaker at 150 rpm. Candida albicans (ATCC #18804) is grown in YM broth (Difco). Exponential cultures obtained by reculturing stationary overnight precultures were used for experiments.
(§6) E. coli, P. aeruginosa, and S. aureus are grown in fresh medium for approximately 1 hr to a density of about 10^8 cells/ml; the OD values at 650 nm are 0.6, 0.8, and 0.8, respectively. C. albicans is grown for approximately 4 hr to an approximate density of 10^8 cells/ml, corresponding to an OD of 6 at 650 nm (measured at 10-fold dilution). Cells were used for experiments in the mid-log growth phase.
(§7) A noncoherent lamp with filtered liquid light guides, e.g., a LumaCare™ LC122 lamp (MBG Technologies, Inc., Newport Beach, Calif.) was used to provide illumination of PS. More specifically, for illumination of fullerenes, a broad-band white light band pass filter (400-700 nm) was used, whereas for TBO, a band pass filter at 620-650 nm was used. The lamp was adjusted to give a uniform spot of about 4 cm diameter with an irradiance of 200 mW/cm^2, as measured with a power meter, e.g., a model DMM 199 meter with 201 Standard head (Coherent, Santa Clara, Calif.).
(§8) Typically, derivatized fullerenes prepared as described above are dissolved in DMSO to provide stock solutions having final concentrations of about 5 mM. […] All stock solutions were stored in the dark at room temperature.
(§9) In some experiments, for example in studies described in Examples below, suspensions of S. aureus cells (10^8 per ml) were incubated with derivatized fullerenes such as NI-1-3 and CI1-3 at a concentration of 100 μM in PBS at room temperature for 10 min. In other experiments, the bacterial suspension was centrifuged (4000×g for 10 min) after incubation and resuspended in fresh PBS before illumination; the latter procedure was referred to herein as a “wash.” E. coli, P. aeruginosa, and C. albicans were used at concentrations of about 10^8 cells per ml.
(§10) Illumination was carried out from above on microbial cell suspensions in wells of a 24-well plate. Aliquots were removed at times corresponding to the delivery of calculated fluences of light, and were serially diluted in PBS and streaked on square BHI or YM agar plates according to the method of Jett et al. (Jett, B. D., Hatter, K. L., Huycke, M. M., and Gilmore, M. S. (1997). Simplified agar plate method for quantifying viable bacteria. Biotechniques 23, 648-650). Survival fractions were calculated with reference to cells incubated in PBS alone. Values on killing curves at 0 J/cm^2 represent the dark toxicity of the fullerenes or other PS tested. Control cells were treated with light and no PS and also analyzed for viability.

[6] = tested on: P. aeruginosa; assay: as above; type: cell-based, Pseudomonas aeruginosa; conditions: 10 μM, 10 min, white light up to 50 J/cm^2
Experimental: as §5, §6, §7, §8, §9, §10

[7] = tested on: S. aureus; assay: as above; type: cell-based, Staphylococcus aureus; conditions: 1 μM
[8] = 10 min, white light up to 50 J/cm^2

C[N+]1(C)Cc2c(c3c4ccc5c6ccc7c8ccc9c%10c%11c%12c(c2c2c3c3c4c5c4c6c7c5c8c9c%11c6c(c%122)c3c4c56)C2C[N+](C)(C)CC%102)C1 (stereo not shown) [CI2]
PDI of S. aureus ([1]; 100 μM, 10 min, 405 nm light 0-200 J/cm^2): most potent
killing of S. aureus ([1]; 1-μM, 8 J/cm^2, 405 nm light): 6 logs
potency relative to the other fullerene derivatives ([1]; S. aureus, 1 μM and 8 J/cm^2 versus 100 μM screen): approximately 1000 times
killing of E. coli [2]: high levels of killing
killing of P. aeruginosa ([3]; 10-20 μM, 16 J/cm^2 of 405-nm light): high levels of killing
effect of a wash on killing of P. aeruginosa ([3]; illumination with versus without a wash, 405 nm): more killing after a wash
killing of C. albicans [4]: high levels of killing
change of E. coli killing in the presence of serum versus no serum ([5]; 10 min, 10% FBS, with a wash, white light): about 1 log
PDT activity against E. coli [5, 8]: effectively killed
killing of E. coli ([5]; with a wash, 2 J/cm^2 white light): 4 logs
PDT activity against P. aeruginosa [6]: effectively killed
PDT activity against S. aureus [7, 8]: effectively killed
light sufficient to kill 4-5 logs of S. aureus ([7]; with a wash, white light): 2 J/cm^2

From US8207211B2, “Photosensitizers for targeted photodynamic therapy” (The General Hospital Corporation, priority 2005, dated 2012)
